Results on eight molecules are retold here after patent US20170312296A1, “AGENTS FOR KILLING HIV-1-INFECTED CELLS AND APPLICATION THEREOF” (KAGOSHIMA UNIVERSITY, priority 2015, published 2017).

Usually viability stands for a per cent measure of how many cells are alive, often set against a control.

The subject of data set [1] is mock-infected CD4-positive T lymphocytes (CD4T). Briefly: Cell viability (dye method) of mock-infected CD4T. Format: cell-based, human. The note with it: Example 5, CD4T.
Data set [2] relates to HIV-1-infected human peripheral blood mononuclear cells. Put plainly: Cell viability (dye method) in HIV-1 chronically infected cell model derived from human peripheral blood mononuclear cells. The conditions noted are these: for cell death-inducing effect specific for HIV-1-infected cells: Example 4: treatment after 11 days culture; for effect on the cell death-inducing effect specific for HIV-1-infected cells due to entinostat: Example 2: combination with entinostat 0.5 μM after protease inhibitor pretreatment. As for the experimental part: Healthy donor-derived peripheral blood mononuclear cells were infected with HIV-1 strain IIIB in vitro to prepare an HIV-1 chronically infected cell model derived from human peripheral blood mononuclear cells, and a combination effect of an HIV-1 protease inhibitor (NFV or SQV) and an HDAC inhibitor (entinostat or vorinostat) was examined.
After HIV-1 infection or pseudo-infection (=mock-infection), the cells were cultured for 7 days and treated with various concentrations of each HIV-1 protease inhibitor for 3 days. For 3 days thereafter, treatment was carried out using combinations of each HIV-1 protease inhibitor having the same concentration and each HDAC inhibitor. The cell viability in each sample was measured by a dye method, and the amount of HIV-1 produced, by an ELISA method (HIV-1 p24 Antigen ELISA). […]

Data set [3] relates to HIV-1-infected CD4-positive T lymphocytes (CD4T). Briefly: Cell viability (dye method) in CD4T-derived HIV-1 chronically infected cell model. The format is cell-based, human. The conditions noted are these: for cell death-inducing effect specific for HIV-1-infected cells in CD4T: Example 5: treated 4 days from day 3 or from day 7 after infection; for effect on the cell death-inducing effect specific for HIV-1-infected cells due to entinostat: Example 6, CD4T, combination with entinostat. As for the experimental part:
In this Example, the action of various HDAC inhibitors on HIV-1-infected CD4T was analyzed using CD4T purified from human peripheral blood mononuclear cells.
(§1) In this Example, it was examined whether combined use with an HIV-1 reverse transcriptase inhibitor provided the same effect, by conducting a combination experiment with entinostat according to the experimental procedure shown in FIG. 13 using tenofovir (TFV) as one of the clinically most used HIV-1 reverse transcriptase inhibitors.
(§2) Then, it was examined whether combined use with an HIV-1 integrase inhibitor provided the same effect by conducting a combination experiment with entinostat according to the experimental procedure shown in FIG. 15 using dolutegravir (DTG) as one of the clinically most used HIV-1 integrase inhibitors.

Data set [4] has as its system mock-infected human peripheral blood mononuclear cells. Briefly: Cell viability (dye method) of mock-infected human peripheral blood mononuclear cells. The format is cell-based. The note with it: Example 4. As for the experimental part: After HIV-1 infection or pseudo-infection (=mock-infection), the cells were cultured for 7 days and treated with various concentrations of each HIV-1 protease inhibitor for 3 days. For 3 days thereafter, treatment was carried out using combinations of each HIV-1 protease inhibitor having the same concentration and each HDAC inhibitor. The cell viability in each sample was measured by a dye method, and the amount of HIV-1 produced, by an ELISA method (HIV-1 p24 Antigen ELISA).
After HIV-1 infection or pseudo-infection (=mock-infection), culture was performed for 11 days, and for 3 days from day 12, the combined administration of each HIV-1 protease inhibitor having various concentrations and the HDAC inhibitor was carried out. The cell viability in each sample was measured by a dye method, and the amount of HIV-1 produced, by an ELISA method (HIV-1 p24 Antigen ELISA).
After HIV-1 infection or pseudo-infection (=mock-infection), the cells were cultured for 11 days and treated with various concentrations of each HDAC inhibitor. The cell viability in each sample was measured by a dye method, and the amount of HIV-1 produced, by an ELISA method (HIV-1 p24 Antigen ELISA).

In data set [5] the test system is HIV-1 strain IIIB. Briefly: Amount of HIV-1 produced (HIV-1 p24 Antigen ELISA) in HIV-1-infected human peripheral blood mononuclear cells. The format is cell-based. For orientation: An ELISA detects its analyte on a solid surface through an enzyme-linked reagent.
Data set [6] deals with Cleaved caspase-3. Put plainly: Western blot of cleaved caspase-3 in CD4T. The format is cell-based, human. The conditions noted are these: entinostat 0.5 μM. As for the experimental part: (§3) The extracted protein was analyzed by a Western blot method.
(§4) The expression of each of Cleaved caspase-3 and Cleaved PARP was corrected with the expression of β-tublin as an internal control to make a graph.
On the technique in general: In western blotting, separated proteins are transferred to a membrane and probed.

Data set [7] relates to Cleaved PARP. Briefly: Western blot of cleaved PARP in CD4T. Format: cell-based, human. As for the experimental part: as §3, §4
For data set [8], the system named is HIV-1 latently infected cells (reservoir cells). The note with it: literature report (Johnstone 2002); cited from earlier work.
Data set [9] relates to HIV-1 strain IIIB. Briefly: Amount of HIV-1 produced (HIV-1 p24 Antigen ELISA) in HIV-1-infected CD4T. Format: cell-based.
Source text: as §1, §2

Setting [10] is: Example 2: protease inhibitor pretreatment 3 days, then combination 3 days, in the presence of entinostat of 0.5 μM.
Where [11] appears, read: Example 3: simultaneous administration with entinostat, no pretreatment, 3 days from day 12.

On to chidamide, for which the “toxicity to mock-infected cells compared to entinostat” value in [1] is given as “less toxic”. The “cell death-inducing effect specific for HIV-1-infected cells compared with entinostat” value in data set [2] (Example 4) was “weaker cell death-inducing effect”. For the same molecule, the “cell death-inducing effect specific for HIV-1-infected cells” value in data set [2] is recorded as “cell death-inducing effect specific for HIV-1-infected cells”. In data set [3] (Example 5, CD4T), the “cell death-inducing effect against infected cells compared to entinostat” value is on record as “weaker cell death-inducing effect”. Moreover, in data set [3], the “cell death-inducing effect specific for HIV-1-infected cells in CD4T” value (shortened to “cell death-inducing effect specific … in CD4T”) is recorded as “cell death-inducing effect specific for HIV-1-infected cells”. For the same molecule, in [4], the “toxicity to mock-infected cells compared with entinostat” value is given as “less toxic”.

In the case of `Cc1c(O)cccc1C(=O)N[C@@H](CSc1ccccc1)[C@H](O)CN1C[C@H]2CCCC[C@H]2C[C@H]1C(=O)NC(C)(C)C` [nelfinavir], the “effect on the cell death-inducing effect specific for HIV-1-infected cells due to entinostat” value in data set [2] is recorded as “did not affect”. Moreover, the HIV-1 production entry in [5] (setting [10]) is “concentration-dependently suppressed HIV-1 production”; in data set [5] (setting [11]), “suppressing HIV-1 production”.

With `Nc1ccccc1NC(=O)c1ccc(CNC(=O)OCc2cccnc2)cc1` [entinostat], the “increase of cleaved caspase-3 in HIV-1-infected CD4T versus pseudo-infected CD4T” value in data set [6] (24 hours) was “more marked”. The “activated form of caspase-3 (cleaved caspase-3) expression” value in [6] (24 hours, pseudo-infected CD4T (Mock) and HIV-1-infected CD4T (HIV)) was “increase”. The “increase in activated form of caspase-3” value in data set [6] (48 hours, pseudo-infected CD4T and HIV-1-infected CD4T) is recorded as “not observed”. Further, the “cell death-inducing effect specific for HIV-1-infected cells” value in [2] is reported as “cell death-inducing effect specific for HIV-1-infected cells”. Besides, the viability at 0.5 µM in data set [2] (Homo sapiens, PBMC, read-out: cell viability of HIV-1-infected cells relative to cell viability of pseudo-infected (non-infected) cells) is ~50%. The “cell death-inducing effect specific … in CD4T” value in data set [3] was “cell death-inducing effect specific for HIV-1-infected cells”. Further, the “cleaved PARP expression” value in [7] (entinostat 0.5 μM, 24 hours, pseudo-infected CD4T and HIV-1-infected CD4T) is “increase in the cleaved PARP was observed”. The “expression of PARP (cleaved)” value in data set [7] (entinostat, 48 hours, HIV-1-infected CD4T) is reported as “markedly increased”. Further, in data set [5] (entinostat alone), the “effect of the HDAC inhibitor on HIV-1 production in infected cells” value was “activates HIV-1 production”. Besides, the “activation of HIV-1 latently infected cells to induce HIV-1 production” value in data set [8] is given as “activate HIV-1 latently infected cells”.

Consider `C[C@@H]1CCO[C@H]2Cn3cc(C(=O)NCc4ccc(F)cc4F)c(=O)c(O)c3C(=O)N12` [dolutegravir], for which the anti-HIV-1 effect entry in data set [9] (Example 6, CD4T, in the absence of entinostat) is recorded as “hardly had an anti-HIV-1 effect”. Further, the “effect on the cell death-inducing effect specific for HIV-1-infected cells due to entinostat” value in [3] is “did not affect”.

For `C[C@H](Cn1cnc2c(N)ncnc21)OCP(=O)(O)O` [tenofovir], in data set [9] (Example 6, CD4T, irrespective of the presence or absence of entinostat), the “concentration at which HIV-1 production was still not suppressed” value was > 1 µM. Besides, the “effect on the cell death-inducing effect specific for HIV-1-infected cells due to entinostat” value in data set [3] is “did not affect”.

On to `O=C(CCCCCCC(=O)Nc1ccccc1)NO` [vorinostat], for which the “cell death-inducing effect specific … in CD4T” value in [3] is recorded as “no cell death-inducing effect specific for HIV-1-infected cells”. In addition, the “activation of HIV-1 latently infected cells to induce HIV-1 production” value in [8] was “activate HIV-1 latently infected cells”.

In the case of `CC(C)(C)NC(=O)[C@@H]1C[C@@H]2CCCC[C@@H]2CN1C[C@@H](O)[C@H](Cc1ccccc1)NC(=O)[C@H](CC(N)=O)NC(=O)c1ccc2ccccc2n1` [SQV, saquinavir], the “effect on the cell death-inducing effect specific for HIV-1-infected cells due to entinostat” value in data set [2] is “did not affect”. In data set [5] (setting [10]), the HIV-1 production entry is “concentration-dependently suppressed HIV-1 production”.

Turning to `CC(C)CN(C[C@@H](O)[C@H](Cc1ccccc1)NC(=O)O[C@H]1CO[C@H]2OCC[C@H]21)S(=O)(=O)c1ccc(N)cc1` [darunavir], in data set [9] (Example 6: 100 nM, administered simultaneously with entinostat, CD4T), the “activation of HIV-1 production by entinostat” value was “strongly suppressing”. Further, in data set [5] (Example 3: simultaneous administration with entinostat), the “concentration that strongly suppressed the increase in HIV-1 production due to entinostat” value is on record as ≥ 100 nM. In addition, the HIV-1 production result in data set [5] (setting [11]) is on record as “suppressing HIV-1 production”.
